Experimental data from PMC4448982, “LP-925219 maximizes urinary glucose excretion in mice by inhibiting both renal SGLT1 and SGLT2” (Pharmacology Research & Perspectives, 2015).

Experiments:
Type in all cases: cell-based
Details in all cases: mean ± SD
mouse SGLT2 = target: T1, mouse SGLT2 (Mus musculus, UniProt Q923I7); experiment: 14C-AMG uptake assay, HEK293 cells expressing mouse SGLT2
T1 construct: expressed in transfected cells; host or cells: HEK293 (per abstract)
T1 sequence (Q923I7 1-670): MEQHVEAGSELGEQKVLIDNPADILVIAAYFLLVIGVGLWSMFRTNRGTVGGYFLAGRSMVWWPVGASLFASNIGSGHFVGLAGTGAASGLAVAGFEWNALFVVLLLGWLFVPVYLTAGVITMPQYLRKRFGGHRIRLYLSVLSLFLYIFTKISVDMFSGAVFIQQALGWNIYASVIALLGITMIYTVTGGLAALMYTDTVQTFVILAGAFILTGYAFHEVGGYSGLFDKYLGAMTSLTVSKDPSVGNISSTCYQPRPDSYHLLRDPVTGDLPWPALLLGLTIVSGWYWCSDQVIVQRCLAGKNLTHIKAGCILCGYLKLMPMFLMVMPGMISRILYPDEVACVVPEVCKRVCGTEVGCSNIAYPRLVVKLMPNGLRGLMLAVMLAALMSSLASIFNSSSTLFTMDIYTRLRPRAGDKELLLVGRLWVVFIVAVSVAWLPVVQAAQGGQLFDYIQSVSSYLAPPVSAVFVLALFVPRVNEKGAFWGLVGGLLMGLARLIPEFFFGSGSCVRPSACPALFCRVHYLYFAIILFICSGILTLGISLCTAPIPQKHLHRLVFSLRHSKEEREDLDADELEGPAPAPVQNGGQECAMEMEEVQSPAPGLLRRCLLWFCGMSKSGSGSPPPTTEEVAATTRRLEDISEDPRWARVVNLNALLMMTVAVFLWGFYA
Source text: (§1) Methods for generating cell lines expressing mouse, rat, and dog SGLT1 and SGLT2 are published (Powell et al. [2013b], [2014]). Full-length coding sequence of human SGLT1 (NP_000334) and human SGLT2 (NP_003032.1) with an HA-tag at the N-terminus were cloned into the mammalian expression vector pIRESpuro2 (Clontech, Mountain View, CA). HEK293 cells (ATCC, Manassas, VA) were transfected with the pIRESpuro2 vector containing human SGLT1 or SGLT2 and bulk stable cell lines were selected in the presence of 0.5 μg/mL of puromycin.
(§2) Cell lines expressing SGLT1 or SGLT2 were plated into poly-D-lysine-coated 384-well plates, and culture overnight in cell growth medium. Cells were washed, and then incubated in uptake buffer ([…], […] KCl, […] CaCl2, […] MgCl2, […] HEPES/Tris, 1 mg/mL of bovine serum albumin, pH7.4) containing [^14C]α-methylglucopyranoside (^14C-AMG), a nonmetabolizable glucose analog specific for sodium-dependent glucose transporters (Wright and Turk [2004]). The inhibition of SGLT1 or SGLT2 was determined by measuring SGLT1/2-mediated ^14C-AMG uptake in the presence of increasing compound concentrations of LP-925219. […] Standard sigmoidal dose–response model curves were fitted, and the IC50 value was computed as the LP-925219 concentration that inhibited the ^14C-AMG uptake by 50% between baseline and maximum uptake.

rat SGLT1 = target: T2, rat SGLT1 (Rattus norvegicus, UniProt P53790); experiment: 14C-AMG uptake assay, cells expressing rat SGLT1
T2 construct: expressed in transfected cells; host or cells: HEK293 (per abstract)
T2 sequence (P53790 1-665): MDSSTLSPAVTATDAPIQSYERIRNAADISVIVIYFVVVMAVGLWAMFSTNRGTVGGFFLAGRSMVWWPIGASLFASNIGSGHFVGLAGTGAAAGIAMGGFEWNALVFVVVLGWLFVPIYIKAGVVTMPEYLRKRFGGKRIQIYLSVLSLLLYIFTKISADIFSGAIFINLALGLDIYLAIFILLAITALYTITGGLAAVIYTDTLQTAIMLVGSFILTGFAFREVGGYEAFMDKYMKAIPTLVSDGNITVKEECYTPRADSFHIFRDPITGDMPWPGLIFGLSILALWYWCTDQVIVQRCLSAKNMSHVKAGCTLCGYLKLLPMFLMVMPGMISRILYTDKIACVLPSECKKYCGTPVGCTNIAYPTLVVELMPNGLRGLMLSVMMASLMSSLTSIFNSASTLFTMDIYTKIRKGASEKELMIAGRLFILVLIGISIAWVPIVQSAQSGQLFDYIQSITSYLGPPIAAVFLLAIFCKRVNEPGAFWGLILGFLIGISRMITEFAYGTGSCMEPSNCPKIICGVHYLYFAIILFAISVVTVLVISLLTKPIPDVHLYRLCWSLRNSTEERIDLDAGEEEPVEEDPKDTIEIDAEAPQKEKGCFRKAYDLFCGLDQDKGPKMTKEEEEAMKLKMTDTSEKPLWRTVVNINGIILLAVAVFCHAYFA
Source text: as §1, §2

rat SGLT2 = target: T3, rat SGLT2 (Rattus norvegicus, UniProt P53792); experiment: 14C-AMG uptake assay, cells expressing rat SGLT2
T3 construct: expressed in transfected cells; host or cells: HEK293 (per abstract)
T3 sequence (P53792 1-670): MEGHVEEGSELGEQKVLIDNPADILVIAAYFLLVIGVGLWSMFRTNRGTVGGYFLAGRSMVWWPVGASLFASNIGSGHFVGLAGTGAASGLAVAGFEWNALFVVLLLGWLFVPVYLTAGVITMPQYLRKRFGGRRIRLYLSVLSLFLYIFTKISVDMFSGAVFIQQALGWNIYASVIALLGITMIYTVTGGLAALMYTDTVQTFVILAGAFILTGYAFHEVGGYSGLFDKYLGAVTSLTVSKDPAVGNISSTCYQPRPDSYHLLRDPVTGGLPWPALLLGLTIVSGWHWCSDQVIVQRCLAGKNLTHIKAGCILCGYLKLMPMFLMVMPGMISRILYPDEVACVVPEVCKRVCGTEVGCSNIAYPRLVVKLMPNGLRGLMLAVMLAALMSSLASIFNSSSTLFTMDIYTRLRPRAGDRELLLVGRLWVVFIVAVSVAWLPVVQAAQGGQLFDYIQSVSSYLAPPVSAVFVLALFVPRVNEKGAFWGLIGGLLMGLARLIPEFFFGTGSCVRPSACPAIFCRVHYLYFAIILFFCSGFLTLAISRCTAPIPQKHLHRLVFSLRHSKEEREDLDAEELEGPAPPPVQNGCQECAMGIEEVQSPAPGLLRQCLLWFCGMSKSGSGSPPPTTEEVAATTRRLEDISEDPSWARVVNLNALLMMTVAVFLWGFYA
Source text: as §1, §2

Which IC50 (mouse SGLT2) does the source give for COc1ccc(Cc2cc([C@@H]3O[C@H](SC)[C@@H](O)[C@H](O)[C@H]3O)ccc2Cl)cc1 [LP-925219] here?
The IC50 was 0.5 ± 0.1 nM.

And the IC50 (rat SGLT1)?
The IC50 was 36.7 ± 7.2 nM.

And the IC50 (rat SGLT2)?
Its IC50 is 0.3 ± 0.2 nM.
